Consider one compound from publication PMC12844705, “Multitarget Mechanisms of (‒)‒Epigallocatechin-3-Gallate Against MRSA: From SraP L-Lectin Targeting to Synergistic Antibiotic Effects” (Pathogens, 2026).

This experiment addresses T1, Serine-rich adhesin for platelets (SraP), L-Lectin module (Staphylococcus aureus, UniProt Q8NUJ3).
T1 construct: SraP L-Lectin domain (L-Lectin of MW2)
The experiment is described as follows: SPR (Biacore T200, protein amine-coupled on CM5 chip, kinetic fit). It is filed as binding. On the technique in general: In SPR one partner is held on a chip, and binding of the other changes the refractive index at the surface.

Each structure is given as a SMILES string.

T1 sequence (Q8NUJ3 245-480): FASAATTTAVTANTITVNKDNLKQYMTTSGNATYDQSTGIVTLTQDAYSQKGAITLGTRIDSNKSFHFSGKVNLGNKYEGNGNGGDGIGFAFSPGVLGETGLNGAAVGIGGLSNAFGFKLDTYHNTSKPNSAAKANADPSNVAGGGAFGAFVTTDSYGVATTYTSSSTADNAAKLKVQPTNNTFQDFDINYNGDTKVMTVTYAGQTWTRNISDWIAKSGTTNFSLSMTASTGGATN

Consider `O=C(O[C@@H]1Cc2c(O)cc(O)cc2O[C@@H]1c1cc(O)c(O)c(O)c1)c1cc(O)c(O)c(O)c1` [EGCG], for which binding was put at a Kd of 4 µM. This counts as single-digit micromolar.

What is called Kd is the free concentration of one partner at which half of the binding sites on the other are occupied at equilibrium, for simple one-to-one binding. Low readings indicate higher affinity, high ones lower affinity.
